The nature of data set [1]: Cytotoxicity, viability by Trypan blue exclusion. The following applies: human, Kasumi-1 cells, Cytotoxicity (IC50, ng/ml), four days.
Protocol: HL-60, K562, U937, Reh and Daudi cells were obtained from the American Type Culture Collection (Rockville, Md.). Kasumi-1, NB4, BV173, SUPB13, and RS4;11 cells were provided by the Section of Hematology/Oncology, University of Illinois College of Medicine, Chicago, Ill. All cell lines were maintained in suspension culture using RPMI 1640 medium supplemented with 10% heat-inactivated fetal bovine serum, 100 units of penicillin/ml and 100 μg of streptomycin/ml at 37° C. in a humidified atmosphere of 5% CO2 in air. All cells were routinely tested for mycoplasma contamination.
Cellular viability was monitored by Trypan blue exclusion. Inhibition of [3H]thymidine incorporation into DNA was determined to assess the level of cell proliferation as well as DNA synthesis inhibition. […] The filters were counted using a Microbeta™ liquid scintillation counter (Wallac, Turku, Finland) with scintillation fluid. Finally, the percentage of [3H]thymidine incorporation per 10^6 cells was calculated by dividing the dpm of sample-treated cells by the dpm of DMSO-treated cells.
^aViability was determined by Trypan blue exclusion in duplicate samples. […] Results are expressed as median inhibitory cell concentrations of two independent experiments (±standard deviations).
A further data set concerns NB4. As to the kind of experiment: Cytotoxicity, viability by Trypan blue exclusion. It is filed as cell-based. From the text: (§1) All cells were routinely tested for mycoplasma contamination.
(§2) Cellular viability was monitored by Trypan blue exclusion.

The nature of data set [2]: Cytotoxicity, viability by Trypan blue exclusion. The class given is cell-based. The following applies: human, NB4; four days; read-out: Cytotoxicity (IC50, ng/ml).
Excerpt: as §1, §2

The test system of the next data set is Daudi. Description: Cytotoxicity, viability by Trypan blue exclusion. The class given is cell-based. The following applies: for Cytotoxicity (IC50, ng/ml): Daudi, four days.
Excerpt: as §1, §2

A further data set relates to DHL-6. Description: Cytotoxicity, viability by Trypan blue exclusion. It is filed as cell-based. The following applies: for Cytotoxicity (IC50, ng/ml): DHL-6, four days.
Excerpt: as §1, §2

The structures appear in SMILES notation. ≈ marks a conversion by molar mass, not a printed value. Where two headings read alike, the source gives them in different places.

As for `COC(=O)[C@@]12OC[C@]34[C@H]([C@@H](O)[C@@H]1O)[C@@]1(C)CC(=O)C(O)=C(C)[C@@H]1C[C@H]3OC(=O)[C@H](OC(=O)C=C(C)C)[C@@H]24` [compound 1, brusatol], the IC50 at 4 days is 0.05 to 0.1 µg/mL (≈ 0.0961 to 0.192 µM) in data set [1] and less than 25 ng/mL in data set [2]. Moreover, the “Cytotoxicity (IC50, ng/ml)” value in the data set with NB4 (NB4, four days) is 15 ± 0.2 ng/mL; in the data set with Daudi (listed as Brusatol), 5 ± 0.3 ng/mL; in the data set with Daudi (listed as brusatol), “less than 25 ng/ml”; in the data set with DHL-6 (listed as Brusatol), 5 ± 0.5 ng/mL; with DHL-6 (listed as brusatol) it was “less than 25 ng/ml”. For the same compound, the cytotoxicity with NB4 (human, 48 h, 25 ng/ml) was determined as 100%; with Daudi (human, 48 h, 25 ng/ml) it was 100%; with DHL-6 (human, 48 h, 25 ng/ml), 100%.

The values above are taken from patent US20020193425A1, “Cancer chemopreventative compounds and compositions and methods of treating cancers” (priority 2001, published 2002).
